Here are results for 1 compound from patent US20210369714A1, “Prevention and Treatment of Osteoarthritis by Inhibition of Insulin Growth Factor-1 Signaling” (The Regents of the University of California, priority 2018, published 2021).

For the assay, the system named is ATDC5 cells. The assay can be described thus: IGF1 stimulated MMP-9/MMP-13 expression in chondrocytes (quantitative real-time PCR). It counts as cell-based. To be noted: preliminary dose finding experiments, free inhibitor, data not shown. The protocol:
Here, we investigated the therapeutic role of the IGF1R inhibitor (NVP-AEW541) in PTOA development. NVP-AEW541 (IGF1Ri) was incorporated into the polyethylene glycol dimethacrylate (PEG-DMA) hydrogel carriers (microrods) for prolonged local delivery in the joint space following ACL rupture (ACLR). […] The left knee served as the control (CON). 1 day after the TCO, vehicle (Veh) or microrods loaded with inhibitor (IGF1Ri/rod) was injected into the injured knee. […] As determined by μCT, compared with the CON knee, ACLR decreased BV/TV (24%) in the subchondral bone, while the IGF1Ri/rod treatment (Tx) prevented the bone loss. […] As indicated by IHC, ACLR increased the number of PCNA positive articular chondrocytes and MMP-13 production in the Veh-treated injured knee, but these effects were blunted in the IGF1Ri-treated injured knee. Moreover, ACLR increased the production of VEGF, resulting in vessel formation within articular cartilage (as indicated by CD31) in the Veh -treated injured knee, but these effects were blocked in the IGF1Ri-treated injured knee.
FIG. 7. […] The mRNA levels of MMP-9 (upper panel) and MMP-13 (lower panel) were determined by quantitative real-time PCR. […] Results are expressed as percentage of L-19 (house keeper gene) expression (mean±SD) of triplicate determinations. *: p<0.05 IGF-1 treated cultures vs. vehicle treated cultures.

Take `Cl.Cl.Nc1ncnc2c1c(-c1cccc(OCc3ccccc3)c1)cn2[C@H]1C[C@@H](CN2CCC2)C1` [NVP-AEW541, 7-[cis-3-(1-azetidinylmethyl)cyclobutyl]-5-[3-(phenylmethoxy)phenyl]-7H-pyrrolo[2,3-d]pyrimidin-4-amine, dihydrochloride]: the “blocking IGF1 stimulated MMP9 and MMP13 expression” value is given as “highly effective”.
